In PubChem BioAssay (NCI):
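All cell lines were grown in 96-well plates and treated with compound for 48 hours. TGI denotes the concentration required for complete inhibition of growth.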

Columns and labels:
Experiment in all cases: NCI tumour cell line growth inhibition, 48 h
U251 CNS = system: U251 CNS
OVCAR-8 ovarian = system: OVCAR-8 ovarian
LOX IMVI melanoma = system: LOX IMVI melanoma
NCI-H460 lung = system: NCI-H460 lung
A549 NSCLC = system: A549 NSCLC
RPMI-8226 leukemia = system: RPMI-8226 leukemia
HOP-62 NSCLC = system: HOP-62 NSCLC
SK-MEL-28 melanoma = system: SK-MEL-28 melanoma
HCT-116 colon = system: HCT-116 colon
NCI-H23 lung = system: NCI-H23 lung
TK-10 renal = system: TK-10 renal
KM20L2 colon = system: KM20L2 colon
COLO 205 colon = system: COLO 205 colon
HOP-18 NSCLC = system: HOP-18 NSCLC
DMS 114 small cell lung = system: DMS 114 small cell lung
HL-60(TB) leukemia = system: HL-60(TB) leukemia
RXF-631 renal = system: RXF-631 renal
UO-31 renal = system: UO-31 renal
CCRF-CEM leukemia = system: CCRF-CEM leukemia
MOLT-4 leukemia = system: MOLT-4 leukemia
EKVX NSCLC = system: EKVX NSCLC
HCT-15 colon = system: HCT-15 colon
SK-MEL-5 melanoma = system: SK-MEL-5 melanoma
DMS 273 small cell lung = system: DMS 273 small cell lung
ACHN renal = system: ACHN renal
SW-620 colon = system: SW-620 colon
SK-OV-3 ovarian = system: SK-OV-3 ovarian
HOP-92 NSCLC = system: HOP-92 NSCLC
SF-295 CNS = system: SF-295 CNS
XF 498 CNS = system: XF 498 CNS
SN12C renal = system: SN12C renal
LXFL 529 NSCLC = system: LXFL 529 NSCLC
M14 melanoma = system: M14 melanoma
NCI-H522 lung = system: NCI-H522 lung
SF-539 CNS = system: SF-539 CNS
DLD-1 colon = system: DLD-1 colon
SF-268 CNS = system: SF-268 CNS
RXF 393 renal = system: RXF 393 renal
K-562 leukemia = system: K-562 leukemia
A498 renal = system: A498 renal
NCI-H226 lung = system: NCI-H226 lung
OVCAR-5 ovarian = system: OVCAR-5 ovarian
M19-MEL melanoma = system: M19-MEL melanoma
UACC-62 melanoma = system: UACC-62 melanoma
OVCAR-4 ovarian = system: OVCAR-4 ovarian
SR leukemia = system: SR leukemia
CAKI-1 renal = system: CAKI-1 renal
SNB-78 CNS = system: SNB-78 CNS
786-0 renal = system: 786-0 renal
MALME-3M melanoma = system: MALME-3M melanoma
OVCAR-3 ovarian = system: OVCAR-3 ovarian
UACC-257 melanoma = system: UACC-257 melanoma
SK-MEL-2 melanoma = system: SK-MEL-2 melanoma
HCC-2998 colon = system: HCC-2998 colon
IGROV1 ovarian = system: IGROV1 ovarian
KM12 colon = system: KM12 colon
SNB-19 CNS = system: SNB-19 CNS
HT29 colon = system: HT29 colon
SNB-75 CNS = system: SNB-75 CNS
P388 leukemia = system: P388 leukemia
SN12K1 renal = system: SN12K1 renal
MDA-MB-231 breast = system: MDA-MB-231 breast
NCI/ADR-RES ovarian = system: NCI/ADR-RES ovarian
DU-145 prostate = system: DU-145 prostate
MDA-N = system: MDA-N
BT-549 breast = system: BT-549 breast
HS 578T breast = system: HS 578T breast
PC-3 prostate = system: PC-3 prostate
MDA-MB-435 = system: MDA-MB-435
P388/ADR leukemia = system: P388/ADR leukemia
T-47D breast = system: T-47D breast
MCF7 breast = system: MCF7 breast

Compound: Nc1ccn(C2OC(C(O)CO)C(O)C2O)c(=O)n1 (stereo unspecified)
- TGI (U251 CNS): > 100 µM
- TGI (OVCAR-8 ovarian): > 100 µM
- TGI (LOX IMVI melanoma): > 100 µM
- TGI (NCI-H460 lung): > 100 µM
- TGI (A549 NSCLC): > 100 µM
- TGI (RPMI-8226 leukemia): > 100 µM
- TGI (HOP-62 NSCLC): > 100 µM
- TGI (SK-MEL-28 melanoma): > 100 µM
- TGI (HCT-116 colon): > 100 µM
- TGI (NCI-H23 lung): > 100 µM
- TGI (TK-10 renal): > 100 µM
- TGI (KM20L2 colon): > 100 µM
- TGI (COLO 205 colon): > 100 µM
- TGI (HOP-18 NSCLC): > 100 µM
- TGI (DMS 114 small cell lung): > 100 µM
- TGI (HL-60(TB) leukemia): > 100 µM
- TGI (RXF-631 renal): > 100 µM
- TGI (UO-31 renal): > 100 µM
- TGI (CCRF-CEM leukemia): > 100 µM
- TGI (MOLT-4 leukemia): > 100 µM
- TGI (EKVX NSCLC): > 100 µM
- TGI (HCT-15 colon): > 100 µM
- TGI (SK-MEL-5 melanoma): > 100 µM
- TGI (DMS 273 small cell lung): > 100 µM
- TGI (ACHN renal): > 100 µM
- TGI (SW-620 colon): > 100 µM
- TGI (SK-OV-3 ovarian): > 100 µM
- TGI (HOP-92 NSCLC): > 100 µM
- TGI (SF-295 CNS): > 100 µM
- TGI (XF 498 CNS): > 100 µM
- TGI (SN12C renal): > 100 µM
- TGI (LXFL 529 NSCLC): > 100 µM
- TGI (M14 melanoma): > 100 µM
- TGI (NCI-H522 lung): > 100 µM
- TGI (SF-539 CNS): > 100 µM
- TGI (DLD-1 colon): > 100 µM
- TGI (SF-268 CNS): > 100 µM
- TGI (RXF 393 renal): > 100 µM
- TGI (K-562 leukemia): > 100 µM
- TGI (A498 renal): > 100 µM

Compound: CS/C(=C(\S)c1ccccc1)c1ccccc1
- TGI (U251 CNS): > 100 µM
- TGI (OVCAR-8 ovarian): > 100 µM
- TGI (LOX IMVI melanoma): > 100 µM
- TGI (NCI-H460 lung): > 100 µM
- TGI (NCI-H226 lung): > 100 µM
- TGI (A549 NSCLC): > 100 µM
- TGI (OVCAR-5 ovarian): > 100 µM
- TGI (RPMI-8226 leukemia): > 100 µM
- TGI (HOP-62 NSCLC): > 100 µM
- TGI (M19-MEL melanoma): > 100 µM
- TGI (SK-MEL-28 melanoma): > 100 µM
- TGI (HCT-116 colon): > 100 µM
- TGI (NCI-H23 lung): > 100 µM
- TGI (UACC-62 melanoma): > 100 µM
- TGI (OVCAR-4 ovarian): > 100 µM
- TGI (TK-10 renal): > 100 µM
- TGI (KM20L2 colon): > 31.6 µM
- TGI (SR leukemia): > 100 µM
- TGI (COLO 205 colon): > 100 µM
- TGI (HOP-18 NSCLC): > 100 µM
- TGI (DMS 114 small cell lung): > 100 µM
- TGI (HL-60(TB) leukemia): > 100 µM
- TGI (RXF-631 renal): > 100 µM
- TGI (CAKI-1 renal): > 100 µM
- TGI (UO-31 renal): > 100 µM
- TGI (SNB-78 CNS): > 100 µM
- TGI (786-0 renal): > 100 µM
- TGI (MALME-3M melanoma): > 100 µM
- TGI (EKVX NSCLC): > 100 µM
- TGI (HCT-15 colon): > 100 µM
- TGI (SK-MEL-5 melanoma): > 100 µM
- TGI (DMS 273 small cell lung): > 100 µM
- TGI (OVCAR-3 ovarian): > 100 µM
- TGI (ACHN renal): > 100 µM
- TGI (SW-620 colon): > 100 µM
- TGI (SK-OV-3 ovarian): > 100 µM
- TGI (HOP-92 NSCLC): > 100 µM
- TGI (SF-295 CNS): > 100 µM
- TGI (XF 498 CNS): > 100 µM
- TGI (SN12C renal): > 100 µM
- TGI (UACC-257 melanoma): > 100 µM
- TGI (LXFL 529 NSCLC): > 100 µM
- TGI (M14 melanoma): > 100 µM
- TGI (SK-MEL-2 melanoma): > 100 µM
- TGI (HCC-2998 colon): > 100 µM
- TGI (NCI-H522 lung): > 100 µM
- TGI (SF-539 CNS): > 100 µM
- TGI (DLD-1 colon): > 100 µM
- TGI (SF-268 CNS): > 100 µM
- TGI (IGROV1 ovarian): > 100 µM
- TGI (RXF 393 renal): > 100 µM
- TGI (KM12 colon): > 100 µM
- TGI (K-562 leukemia): > 100 µM
- TGI (SNB-19 CNS): > 100 µM
- TGI (HT29 colon): > 100 µM
- TGI (SNB-75 CNS): > 100 µM
- TGI (A498 renal): > 100 µM

Compound: COC12C(COC(N)=O)C3=C(C(=O)C(C)=C(N)C3=O)N1CC1C2N1C (stereo unspecified)
- TGI (U251 CNS): 22.6 µM
- TGI (P388 leukemia): 75.2 µM
- TGI (OVCAR-8 ovarian): 53.1 µM
- TGI (LOX IMVI melanoma): 20.2 µM
- TGI (NCI-H460 lung): 1.86 µM
- TGI (NCI-H226 lung): 38.8 µM
- TGI (A549 NSCLC): 24.2 µM
- TGI (OVCAR-5 ovarian): 63.1 µM
- TGI (RPMI-8226 leukemia): > 85.5 µM
- TGI (HOP-62 NSCLC): 16.8 µM
- TGI (SN12K1 renal): 19.9 µM
- TGI (MDA-MB-231 breast): 115 µM
- TGI (NCI/ADR-RES ovarian): 268 µM
- TGI (M19-MEL melanoma): 24.7 µM
- TGI (SK-MEL-28 melanoma): 57.4 µM
- TGI (HCT-116 colon): 32.1 µM
- TGI (NCI-H23 lung): 17.6 µM
- TGI (UACC-62 melanoma): 11.1 µM
- TGI (OVCAR-4 ovarian): 28.1 µM
- TGI (TK-10 renal): 69.5 µM
- TGI (KM20L2 colon): 52.3 µM
- TGI (SR leukemia): 56.5 µM
- TGI (COLO 205 colon): 21.6 µM
- TGI (DU-145 prostate): 15.3 µM
- TGI (HOP-18 NSCLC): 82.5 µM
- TGI (MDA-N): 35.3 µM
- TGI (HL-60(TB) leukemia): 8.66 µM
- TGI (BT-549 breast): 28.3 µM
- TGI (CAKI-1 renal): 22 µM
- TGI (UO-31 renal): 32.6 µM
- TGI (CCRF-CEM leukemia): 51.7 µM
- TGI (SNB-78 CNS): 51.1 µM
- TGI (HS 578T breast): 75.7 µM
- TGI (786-0 renal): 68.5 µM
- TGI (MOLT-4 leukemia): 18.6 µM
- TGI (MALME-3M melanoma): 18.7 µM
- TGI (EKVX NSCLC): 60.3 µM
- TGI (HCT-15 colon): 55.1 µM
- TGI (SK-MEL-5 melanoma): 9.19 µM
- TGI (DMS 273 small cell lung): 5.81 µM
- TGI (OVCAR-3 ovarian): 35.4 µM
- TGI (ACHN renal): 25.3 µM
- TGI (SW-620 colon): 35.8 µM
- TGI (SK-OV-3 ovarian): 49 µM
- TGI (HOP-92 NSCLC): 36.4 µM
- TGI (PC-3 prostate): 61.6 µM
- TGI (MDA-MB-435): 28.1 µM
- TGI (SF-295 CNS): 18.1 µM
- TGI (XF 498 CNS): 21 µM
- TGI (SN12C renal): 29.5 µM
- TGI (UACC-257 melanoma): 35.6 µM
- TGI (M14 melanoma): 22.7 µM
- TGI (P388/ADR leukemia): 263 µM
- TGI (SK-MEL-2 melanoma): 31.2 µM
- TGI (HCC-2998 colon): 16.7 µM
- TGI (NCI-H522 lung): 25.4 µM
- TGI (SF-539 CNS): 46.7 µM
- TGI (DLD-1 colon): 57.8 µM
- TGI (SF-268 CNS): 47 µM
- TGI (IGROV1 ovarian): 28.6 µM
- TGI (RXF 393 renal): 28.7 µM
- TGI (KM12 colon): 43.7 µM
- TGI (T-47D breast): 182 µM
- TGI (K-562 leukemia): 179 µM
- TGI (SNB-19 CNS): 62.5 µM
- TGI (HT29 colon): 43.2 µM
- TGI (MCF7 breast): 22.3 µM
- TGI (SNB-75 CNS): 11.8 µM
- TGI (A498 renal): 21.2 µM
